Assay results published in patent US6919188B1, “Pseudomycin production by Pseudomonas syringae” (Eli Lilly and Company, priority 1999, dated 2005).
“Also recorded” adds a separate entry of the source. Starred links: 1 amine or outer side, 2 acyl side, 3 side chain; linkers in the order of their positions; H or OH if unused. Positions of bridges follow the written chain, without caps; N, C: chain ends. Non-standard residues stand in square brackets, D forms with d. Residues, ends and D or L forms follow the SMILES beside them. ξ: configuration not given here. *: point of attachment. Tetradecanoyl(3R-OH) = CCCCCCCCCCC[C@@H](O)CC(=O)*; Asp(3S-OH) = N[C@H](C(=O)O)[C@H](O)C(=O)O; Thr(4-Cl) = N[C@H](C(=O)O)[C@H](O)CCl; ξAsp(3ξ-OH) = NC(C(=O)O)C(O)C(=O)O; X3 = O=C(C(N[*:1])C(O)CCl)[*:2]; X1 = CCCCCCCCCCC(O)C(O)CC(=O)*; aThr = C[C@H](O)[C@H](N)C(=O)O; X2 = C/C=C(/N[*:1])C(=O)[*:2]; dDab = NCC[C@@H](N)C(=O)O; Dab = NCC[CH](N)C(=O)O; Dhb = C/C=C(\N)C(=O)O

How the values were obtained:
[1] = test system: fungi, including important fungal pathogens in both humans and plants; conditions: isolated pseudomycins; spectrum of fungi; cited from earlier work
[2] = Toxicity of pseudomycins (general statement); conditions: no species or dose given
[3] = test system: fungi, including important fungal pathogens in both humans and plants; test: Antifungal activity of isolated pseudomycins (general statements, literature); type: cell-based; conditions: comparison with pseudomycins A, C, certain fungi

Compound	antifungal activity [1]	toxicity [2]	potency against fungi compared to the other preferred pseudomycins [3]
C/C=C1\NC(=O)[C@H]([C@H](C)O)NC(=O)[C@H](CCN)NC(=O)[C@H](CCCCN)NC(=O)[C@H](CC(=O)O)NC(=O)[C@@H](CCN)NC(=O)[C@@H](NC(=O)C[C@H](O)CCCCCCCCCCC)COC(=O)[C@H]([C@H](O)CCl)NC(=O)[C@H]([C@H](O)C(=O)O)NC1=O [Pseudomycin B] ({Tetradecanoyl(3R-OH)}-S[dDab]DK[Dab][aThr][Dhb][Asp(3S-OH)][Thr(4-Cl)]; ester 1-C)	activity against a wide variety of fungi; also recorded: wide spectrum antifungal activity	generally acceptable toxicity; also recorded: lower level of toxicity	greater potency against certain fungi
C/C=C1/NC(=O)C(C(C)O)NC(=O)C(CCN)NC(=O)C(CCCCN)NC(=O)C(CC(=O)O)NC(=O)C(CCN)NC(=O)C(NC(=O)CC(O)C(O)CCCCCCCCCC)COC(=O)C(C(O)CCl)NC(=O)C(C(O)C(=O)O)NC1=O (centres unmarked) [Pseudomycin A] (X1-S[Dab]DK[Dab]T[X2][ξAsp(3ξ-OH)][X3]; ester 1-C; configuration not given here)	activity against a wide variety of fungi; also recorded: wide spectrum antifungal activity	generally acceptable toxicity	
